From patent US20080200441A1, “ESTROGEN RECEPTOR MODULATORS ASSOCIATED PHARMACEUTICAL COMPOSITIONS AND METHODS OF USE” (University of Southern California, priority 2007, published 2008)

Assays:
[1] = test system: Bcl-XL; conditions: previously observed; cited from earlier work
[2] = test system: MCF-7 cells; experiment: MCF-7 cell proliferation, MTT; type: cell-based, human; conditions: 3 days, serially diluted concentrations, MTT at 570 nm
[3] = test system: Bcl-2; experiment: Bcl-2 expression, Western immunoblotting; conditions: primary hippocampal neurons
[4] = test system: ERK2; experiment: ERK phosphorylation, Western immunoblotting; conditions: primary hippocampal neurons
[5] = test system: spinophilin; conditions: primary neurons, earlier findings; cited from earlier work
[6] = test system: rat primary hippocampal neurons; conditions: previous reports; cited from earlier work
[7] = test system: rat primary hippocampal neurons; experiment: Intracellular calcium imaging in hippocampal neurons; type: cell-based
Description: The [Ca^2+]i in hippocampal neurons was measured by ratiometric Ca^2+ imaging with the Ca^2+-sensitive fluorescent dye fura-2. Prior to imaging, hippocampal neurons were loaded with 2 μM fura-2 acetoxymethyl ester (fura-2 AM, Molecular Probes, Inc., Eugene, Oreg.) for 30-45 min at 37° C. in HEPES-Buffered Solution (HBS), containing (in mM): 100 NaCl, 2.0 KCl, 1.0 CaCl2, 1.0 MgCl2, 1.0 NaH2PO4, 4.2 NaHCO3, 12.5 HEPES and 10.0 glucose. Excess fura-2 AM dye was removed by washing with HBS and then the neurons were incubated in HBS for 30 min at 37° C. to equilibrate. The coverslip with fura-2 AM-loaded neurons was removed and attached to the coverslip clamp chamber MS-502S (ALA Scientific Instruments, Westbury, N.Y.) for the Ca^2+ imaging analysis. Neurons were placed on the stage of an inverted microscope (MT-2, Olympus) equipped with epifluorescence optics (20× Nikon), The perfusion solution is HBS and the perfusion system connected to the perfusion chamber was balanced using two variable speed pumps. Imaging was performed at room temperature. Neurons were perfused at a flow rate of 2 ml/min. Fura-2 was excited by a xenon light source at 340 and 380 nm. The emitted fluorescence was filtered through a 520 nm filter, captured with an intensified CCD camera (COHU) and analyzed with InCyt Im2 software (Intracellular Imaging, Cincinnati, Ohio). The concentration of Ca^2+ was calculated by comparing the ratio of fluorescence at 340 and 380 nm against a standard curve of known [Ca^2+].

[8] = test system: Bcl-2; conditions: previously observed; cited from earlier work

C[C@]12CCC3c4ccc(O)cc4CC(CCCCCCCCC[S+]([O-])CCCC(F)(F)C(F)(F)F)C3C1CC[C@@H]2O (stereo partly shown) [ICI 182,780]
Bcl-XL expression [1]: Upregulation
MCF-7 cell proliferation [2]: promoted MCF-7 cell proliferation in a concentration dependent manner
expression of antiapoptotic protein Bcl-2 [3]: potentiate the expression of antiapoptotic protein Bcl-2
phosphorylation of ERK [4]: activate the phosphorylation of ERK
spinophilin expression [5]: comparably effective to 17β-estradiol in upregulating spinophilin expression
concentration of maximal neuroprotection [6]: 10 nM
intracellular calcium rise ([7]; compound alone): directly induce intracellular calcium rise
physiological glutamate-induced rise in calcium ion concentration ([7]; physiological glutamate): potentiates the physiological glutamate-induced rise in calcium ion concentration
excitotoxic glutamate-induced rise in intracellular calcium ([7]; pretreated neurons, excitotoxic glutamate): attenuation of the glutamate-induced rise in intracellular calcium
Bcl-2 expression [8]: Upregulation
